Data as given in patent US5008252A, “Process for inhibiting herpes simplex virus-specified thymidine kinase” (The University of North Carolina at Chapel Hill, priority 1987, dated 1991).
Where “and” joins values, the source holds several entries; their conditions need not be identical. Equal entries are not always repeated.

Legend:
[1] = target: HSV-1 (strain KOS) dThd kinase-associated dTMP kinase (Human alphaherpesvirus 1 strain KOS, UniProt P17402); experiment: dTMP (thymidylate) kinase assay, crude extracts; format: biochemical; settings: HSV-1 KOS
Sequence of HSV-1 (strain KOS) dThd kinase-associated dTMP kinase (P17402 whole entry, looked up): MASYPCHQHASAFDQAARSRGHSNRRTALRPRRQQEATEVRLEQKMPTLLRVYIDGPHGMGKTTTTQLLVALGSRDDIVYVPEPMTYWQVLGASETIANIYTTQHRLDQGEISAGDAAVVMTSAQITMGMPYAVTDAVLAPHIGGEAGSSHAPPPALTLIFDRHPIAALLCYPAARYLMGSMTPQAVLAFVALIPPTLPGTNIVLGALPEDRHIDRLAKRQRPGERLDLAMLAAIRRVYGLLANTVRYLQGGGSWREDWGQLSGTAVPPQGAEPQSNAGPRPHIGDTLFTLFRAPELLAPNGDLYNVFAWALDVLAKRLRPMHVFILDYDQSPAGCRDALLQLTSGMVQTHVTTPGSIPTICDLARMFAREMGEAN
Method: The thymidylate kinase and synthase assays were performed according to known procedures (see, Cheng, Y.-C. & Prusoff, W. H. (1974) Anal. Biochem. 60:545-550; Roberts, D. (1966) Biochemistry 5:3546-3548; Dolnick, B. J. & Cheng, Y. C. (1977) J. Biol. Chem. 252:7697-7703). dThd phosphorylase activity was determined by monitoring conversion of [^14 C]dThd to [14 C] thymine using high performance liquid chromatography (HPLC). Briefly, after a 30 min incubation of enzyme extract with radiolabeled dThd at 37° C., the reaction was stopped by addition of 25% trichloroacetic acid. After neutralization and centrifugation, the supernatants were loaded on to an Alltech Lichrosorb RP-18 column, and the column was eluted at a rate of 1 ml/min with 5 mM KH2 PO4 (pH 3.5)--10% methanol. Fractions of 1 ml were collected and radioactivity associated with dThd and thymine (as previously determined by retention times of authentic markers measured by their absorbance at 265 nm) was measured by scintillation counting. For evaluation of whether 5'-Et-dThd could serve substrate for dThd phosphorylase, reactions were carried out as described as above, except that 5'-Et-dThd was used instead of [^14 C]dThd; metabolites were then analyzed by HPLC as described above.

mammalian cell growth = experiment: Cell growth inhibition; format: cell-based
Method: (§1) Cell and virus growth inhibition. Cell growth inhibition and the virus yield assay were performed in accordance with the protocol described by Cheng, Y.-C., Grill, S.P., Ruth, J. and Bergstrom, D. E. (Antimicrob. Agents Chemother. 18:957-961 (1980)) with the exceptions that all studies were done using 5% dialyzed fetal bovine serum; the multiplicity of infection was 3 PFU/cell and Vero cells were used instead of CV-1 cells for titration in the virus yield assays.

[2] = target: T1, HSV-2 (333) dThd kinase in infected HeLa BU cells (Human herpesvirus 2, UniProt P04407); experiment: Intracellular dThd kinase activity ([14C]dThd phosphorylation); format: cell-based, HSV-2 (strain 333)
T1 construct: kinases were extracted from dThd kinase-deficient HeLa BU cells infected with HSV-1 (strain KOS) and HSV-2(strain 333); endogenous in cells; host or cells: HeLa BU cells (dThd kinase deficient) infected with HSV-2 (strain 333)
T1 sequence (P04407 whole entry): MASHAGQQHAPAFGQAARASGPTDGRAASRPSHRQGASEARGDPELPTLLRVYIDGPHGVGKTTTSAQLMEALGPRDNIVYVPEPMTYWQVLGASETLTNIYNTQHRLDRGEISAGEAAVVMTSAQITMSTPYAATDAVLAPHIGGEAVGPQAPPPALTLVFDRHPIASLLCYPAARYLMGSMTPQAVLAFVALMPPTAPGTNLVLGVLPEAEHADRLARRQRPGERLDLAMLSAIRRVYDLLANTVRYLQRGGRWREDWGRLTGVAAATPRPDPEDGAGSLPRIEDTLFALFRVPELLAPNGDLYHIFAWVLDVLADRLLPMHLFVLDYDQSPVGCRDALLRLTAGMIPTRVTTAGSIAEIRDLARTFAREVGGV
Method: (§2) Intracellular dThd kinase activity. HeLa S3 or HeLa BU cells (1.5×10^6 /ml) were mock infected or infected with HSV-1 or HSV-2at 3 PFU/cell and incubated at 37° C. for a 1 h adsorption period. The medium was then removed, and the cells were washed with growth medium and resuspended at a cell density of 5×10^5 cells/ml in RPMI 1640 medium supplemented with kanamycin (100 μg/ml) and 5% dialyzed fetal bovine serum. At 9 h post-HSV infection, [14C]dThd (0.16 μCi/ml; 1 μM dThd) and different amounts of 5'-Et-dThd were added to the medium depending on experimental conditions. At the end of the labeling period (1 h), the cells were pelleted by centrifugation, washed with phosphate-buffered-saline (PBS) and resuspended in a small volume of PBS. Aliquots were then pipetted directly onto DE81 discs which were immediately washed in 100% EtOH. The DE81 discs were washed two additional times in 100% EtOH, and then radioactivity associated with the discs was measured by scintillation counting in 5 ml of aqueous counting fluid. In this manner, total intracellular dThd kinase activity was determined from the sum of radioactive acid soluble dThd nucleotides plus the acid insoluble dTMP associated with DNA, both precipitated directly on the DE81 discs.

[3] = target: HSV-1 B3 dThd kinase (BVDU resistant variant) (Human alphaherpesvirus 1 strain SC16, UniProt P06479); experiment: dThd kinase assay in vitro, enzyme extracts; format: biochemical, HSV-1 (strain B3); settings: enzyme extracts of infected HeLa BU cells, 100 μM dThd
Sequence of HSV-1 B3 dThd kinase (BVDU resistant variant) (P06479 whole entry, looked up, stated change not applied): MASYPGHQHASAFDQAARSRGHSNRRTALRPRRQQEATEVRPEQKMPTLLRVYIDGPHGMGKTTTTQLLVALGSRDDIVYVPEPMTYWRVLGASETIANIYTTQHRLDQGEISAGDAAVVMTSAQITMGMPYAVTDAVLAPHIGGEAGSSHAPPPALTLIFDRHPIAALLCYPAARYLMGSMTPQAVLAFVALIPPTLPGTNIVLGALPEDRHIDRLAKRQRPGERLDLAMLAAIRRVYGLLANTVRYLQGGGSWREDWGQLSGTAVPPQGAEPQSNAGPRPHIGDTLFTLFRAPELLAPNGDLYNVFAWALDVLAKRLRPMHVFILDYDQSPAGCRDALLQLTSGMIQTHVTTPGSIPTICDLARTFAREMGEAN
Method: (§3) Virus stocks. The viruses used were HSV-1 (strains KOS, SC16, B3 and Tr7) and HSV-2(strain 333). dThd kinase mutants of HSV (SC16), B3 and Tr7, were isolated in the presence of (E)-5-(2-bromovinyl)-2'-deoxyuridine (BVDU) at 10 μg/ml and ACV at 1 μg/ml, respectively (Darby, G., Field, H.J. & Salisbury, S. A. (1982) Nature (London) 289:81-83; Field, H.J & Neden J. (1982) Antiviral Res. 2:243254).
(§4) Enzyme purification, enzyme assays, IC50 and Ki determinations. The cellular cytosolic dThd kinase used to determine the Ki values was isolated from KB6B cells. The HSV-1 and HSV-2dThd kinases were extracted from dThd kinase-deficient HeLa BU cells infected with HSV-1 (strain KOS) and HSV-2(strain 333), respectively. All of the dThd kinases were purified using affinity column chromatography procedures described by Lee, L. S. and Cheng, Y.-C. (J. Biol. Chem. 251:2600-2604 (1976)). The dThd kinase assay used was the same as that described by Cheng, Y.-C. & Ostrander, M. (J. Biol. Chem. 251:2605-2610 (1976)). Incubations were conducted at 37° C. for 60 min and the Ki and 50% […] concentration (IC50) values were determined as described by Cheng, Y.-C. and Prusoff, W. H. (Biochem. Pharmacol. 22:3099-3108 (1976)).

[4] = tested on: mammalian host DNA synthesis; experiment: Host DNA synthesis by 32PO4 incorporation; format: cell-based; settings: 100 μM
[5] = tested on: HSV-1 (strain KOS)-infected HeLa BU cells; experiment: Virus yield assay; format: cell-based
Method: as §1

HSV-1 SC16 dThd kinase = HSV-1 SC16 dThd kinase (Human herpesvirus 1, UniProt P06479); experiment: dThd kinase assay in vitro, enzyme extracts; format: biochemical, HSV-1 (strain SC16); settings: enzyme extracts of infected HeLa BU cells, 100 μM dThd
Sequence of HSV-1 SC16 dThd kinase (P06479 whole entry, looked up): as the sequence (P06479 whole entry, looked up, stated change not applied) above
Method: as §3, §4

[6] = tested on: HSV-1-infected HeLa S3 cells; experiment: Intracellular dThd phosphorylation; format: cell-based; settings: 25 μM, 9 h post infection, 1 h labeling
Method: as §2

[7] = tested on: mock infected HeLa S3 cells; experiment: Intracellular dThd phosphorylation; format: cell-based; settings: increasing amounts of 5'-Et-dThd
Method: as §2

[8] = tested on: HSV-2-infected HeLa S3 cells; experiment: Intracellular dThd phosphorylation; format: cell-based; settings: 25 μM, 9 h post infection, 1 h labeling
Method: as §2

In the case of 5'-ethynylthymidine [5'-Et-dThd], the “IC50 of virus-associated dTMP kinase” value ([1]; 25 μM dTMP substrate) is reported as 0.3 µM, the “IC50 of virus-associated dTMP kinase” value ([1]; 100 μM dTMP substrate) is reported as 0.8 µM and the “inhibition of mammalian cell growth” value (mammalian cell growth) is reported as “nor does the analog inhibit mammalian cell growth”. The “dThd phosphorylating activity, % of untreated control” value (“dThd phosphorylating activity, %” below) ([2]; 25 μM, HSV-2-infected HeLa BU, 9 h post infection, 1 h labeling) was 80%, the “inhibition of dThd kinase-mediated [14C]dThd phosphorylation” value ([2]; 100 μM, HSV-2-infected HeLa BU cells, 9 h post infection) was 50% and the IC50 ([2]; HSV-2 333, intracellular [14C]dThd phosphorylation, HeLa BU cells) was 100 µM. For the same substance, the IC50 [3] was < 10 µM and 7 µM, the “effect on mammalian host DNA synthesis” value [4] was “no effect” and the “effect on the antiviral effect of aphidicolin” value ([5]; 0.2 μM aphidicolin with varying concentrations of 5'-Et-dThd) was “significantly enhanced”. The “effect on virus yield” value ([5]; 5'-Et-dThd by itself) was “no effect”, the “% PFU with a 5'-Et-dThd conc. of 2.5 μM” value ([5]; Table II, drug (μM as in row; None = 5'-Et-dThd alone) plus 2.5 μM 5'-Et-dThd) was 97% and the “% PFU with a 5'-Et-dThd conc. of 25 μM” value ([5]; Table II, drug (μM as in row; None = 5'-Et-dThd alone) plus 25 μM 5'-Et-dThd) was 96%. The “% PFU with a 5'-Et-dThd conc. of 100 μM” value ([5]; Table II, drug (μM as in row; None = 5'-Et-dThd alone) plus 100 μM 5'-Et-dThd) was 99%, the “%PFU with a 5'-Et-dThd conc. of 5 μM” value ([5]; Table III, aphidicolin 0.2 μM (None = 5'-Et-dThd alone) plus 5 μM 5'-Et-dThd) was 100% and the “%PFU with a 5'-Et-dThd conc. of 20 μM” value ([5]; Table III, aphidicolin 0.2 μM (None = 5'-Et-dThd alone) plus 20 μM 5'-Et-dThd) was 100%. The “% PFU with a 5'-Et-dThd conc. of 100 μM” value ([5]; Table III, aphidicolin 0.2 μM (None = 5'-Et-dThd alone) plus 100 μM 5'-Et-dThd) was 100%, the IC50 (HSV-1 SC16 dThd kinase) was 5 µM and the “dThd phosphorylating activity, %” value [6] was 25%. The “accumulation of intracellular phosphorylated [14C]-dThd metabolites” value [7] was “increased slightly” and the “dThd phosphorylating activity, %” value [8] was 88%.
